Measurements: ChEMBL document CHEMBL1139541 (J Med Chem, 2005)

Experiments:
[1] = target: T1, Melatonin receptor type 1B (Homo sapiens) (UniProt P49286); test: Intrinsic activity in [35S]GTP-gamma-S, binding at human melatonin receptor MT2 relative to melatonin; format: functional
T1 sequence (whole entry): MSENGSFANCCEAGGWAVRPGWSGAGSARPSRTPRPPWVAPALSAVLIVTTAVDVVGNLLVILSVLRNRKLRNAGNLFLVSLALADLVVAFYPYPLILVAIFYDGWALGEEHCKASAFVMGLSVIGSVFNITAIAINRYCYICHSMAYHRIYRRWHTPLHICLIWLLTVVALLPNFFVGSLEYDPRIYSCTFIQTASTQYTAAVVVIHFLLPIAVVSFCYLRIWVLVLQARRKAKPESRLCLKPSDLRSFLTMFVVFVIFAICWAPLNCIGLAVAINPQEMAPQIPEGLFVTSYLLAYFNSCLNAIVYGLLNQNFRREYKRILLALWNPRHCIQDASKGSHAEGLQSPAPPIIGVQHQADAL

[2] = target: T2, Melatonin receptor type 1B (Homo sapiens, UniProt P49286); test: Inhibition of 2-[125I]iodomelatonin binding to human melatonin receptor MT2 expressed in […] cells; format: cell-based
T2 sequence (P49286 whole entry): T1 sequence (whole entry)

[3] = target: Melatonin receptor type 1A (Homo sapiens, UniProt P48039); test: Inhibition of 2-[125I]iodomelatonin binding to human melatonin receptor type 1A (MT1) expressed in […] cells; format: cell-based
Sequence of Melatonin receptor type 1A (P48039 whole entry): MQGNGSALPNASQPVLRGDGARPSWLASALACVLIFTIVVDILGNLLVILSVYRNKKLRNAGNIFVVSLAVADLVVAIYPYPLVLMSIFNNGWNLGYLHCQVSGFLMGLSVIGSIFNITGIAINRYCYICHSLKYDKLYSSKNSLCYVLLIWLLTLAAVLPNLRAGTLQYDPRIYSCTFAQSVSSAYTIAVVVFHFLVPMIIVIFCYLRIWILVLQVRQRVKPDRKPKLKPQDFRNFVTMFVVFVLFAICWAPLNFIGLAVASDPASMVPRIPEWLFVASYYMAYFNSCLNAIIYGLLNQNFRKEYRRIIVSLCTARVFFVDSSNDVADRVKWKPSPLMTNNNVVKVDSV

| Structure (SMILES) | IA [1] | Ki [2] [nM] | Ki [3] [nM] |
| --- | --- | --- | --- |
| CCC(=O)NCc1cc2c(OC)cccc2n1Cc1ccc(Cl)cc1 | 0.01 | – | – |
| CCC(=O)NCc1cc2c(OC)cccc2n1C(=O)c1ccc(Cl)cc1 | -0.08 | 1820 | > 10000 |
| CCC(=O)NCc1cc2c(OC)cccc2n1Cc1c(C)cccc1C | 0.16 | 6030 | > 10000 |

Further molecules by falling Ki [2], results first:

| IA [1] | Ki [2] [nM] | Ki [3] [nM] | Structure (SMILES) |
| --- | --- | --- | --- |
| 0.08 | 288 | > 10000 | CCC(=O)NCc1cc2c(OC)cccc2n1S(=O)(=O)c1ccccc1 |
| – | 9.77 | > 1000 | COc1cc2c(cc1OC)C(CC(c1ccccc1)c1ccccc1)N(C(C)=O)CC2 (centres undefined) |
| – | 0.0158 | 105 | CCC(=O)NC1Cc2ccccc2C(c2ccccc2)C1 (centres undefined) |
